Assay results as given in patent publication US5536723A, “S-nitroso derivatives of hydrazinoacetic acids, 1-[(acylthio and (mercapto)-1-oxoalkyl]-1,2,34-Tetrahydroquinoline-2-carboxylic acids and alanyl prolines and isoquinolines” (Brigham & Women's Hospital, priority 1994, dated 1996).

What was measured:
[1] = system: bovine femoral artery, contraction to angiotensin I; assay: contraction of the bovine femoral artery to angiotensin I
Protocol: The data are expressed as a percentage of the maximal response to norepinephrine (10^-6 M) and are shown as mean ±SEM in each group (n=7).
(§1) Blood Vessel Preparation. Bovine coronary or femoral arteries were obtained from an abattoir immediately after sacrifice of two- to four-week-old calves. Immediately after removal, the vessel was placed in ice-cold physiologic salt solution (PSS) containing 118.3 mM NaCl, 4.7 mM KCl, 2.5 mM CaCl2, 1.2 mM MgSO4, 1.2 mM KH2 PO4, 25.0 mM NaHCO3, 11.1 mM glucose, and 0.026 mM calcium disodium (ethylenedinitrilo)-tetraacetate. The vessels were then cleaned of adventitial tissue and cut into rings of approximately 5 mm lengths. When called for by the protocol, endothelium was removed from a ring by gently rubbing the luminal surface with a watchmaker's forceps. Vascular rings with intact endothelium were then suspended in organ chambers containing 25 ml of PSS at 37° aerated with 95% O2 -5% CO2. The rings were connected to force transducers (Grass FT03C, Quincy, Mass.) and changes in isometric force recorded continuously (Grass Polygraph Model 79B) over a period of 90 minutes. The optimal length-tension relationship was determined for each ring by observing the response to 10^-6 M norepinephrine after increments in tension of 0.5 gm. The functional integrity of the endothelium was assessed by contracting the vessel with 10^-6 M norepinephrine and then observing the response to 3×10^-7 M acetylcholine chloride.

[2] = system: cGMP (and cAMP) in platelets; assay: cGMP (and cAMP) levels in platelets; format: cell-based; conditions: 10^-5 M, one minute
Protocol: (§2) Since the postulated mechanism by which the nitrosothiol moiety of S-nitrosocaptopril directly relaxes vascular smooth muscle and attenuates the platelet aggregation response is believed to be through activation of soluble guanylate cyclase, cGMP (and cAMP) levels were measured in vessel ring segments and in platelets incubated with 10^-5 M S-nitrosocaptopril.

[3] = spontaneous hydrolysis (half-life of the S-nitroso bond) in physiologic buffer (PSS); format: physicochemical; conditions: 37° C.
Protocol: FIG. 1 depicts a graph showing the spontaneous hydrolysis of S-nitrosocaptopril in PBS. Each point represents the mean ±SEM of four experiments performed in duplicate.
The half-life of the S-nitroso bond of S-nitrosocaptopril in physiologic buffer and in plasma was determined by incubating purified S-nitrosocaptopril in aerated PSS or in PPP, the results of which are shown in FIG. 1.

[4] = system: bovine femoral artery, contraction to angiotensin II; assay: contraction of the bovine femoral artery to angiotensin II
Protocol: The data are expressed as a percentage of the maximal response to norepinephrine (10^-4 M) and are shown as mean ±SEM in each group (n=6).
as §1

[5] = system: cGMP (and cAMP) in vascular rings; assay: cGMP (and cAMP) levels in vessel ring segments; format: cell-based; conditions: 10^-5 M, one minute
Protocol: as §2

[6] = target: T1, ACE (Rattus norvegicus, UniProt P47820); assay: ACE inhibition, rat lung source of ACE; format: biochemical; conditions: 10^-10 to 10^-8
T1 sequence (P47820 36-1313): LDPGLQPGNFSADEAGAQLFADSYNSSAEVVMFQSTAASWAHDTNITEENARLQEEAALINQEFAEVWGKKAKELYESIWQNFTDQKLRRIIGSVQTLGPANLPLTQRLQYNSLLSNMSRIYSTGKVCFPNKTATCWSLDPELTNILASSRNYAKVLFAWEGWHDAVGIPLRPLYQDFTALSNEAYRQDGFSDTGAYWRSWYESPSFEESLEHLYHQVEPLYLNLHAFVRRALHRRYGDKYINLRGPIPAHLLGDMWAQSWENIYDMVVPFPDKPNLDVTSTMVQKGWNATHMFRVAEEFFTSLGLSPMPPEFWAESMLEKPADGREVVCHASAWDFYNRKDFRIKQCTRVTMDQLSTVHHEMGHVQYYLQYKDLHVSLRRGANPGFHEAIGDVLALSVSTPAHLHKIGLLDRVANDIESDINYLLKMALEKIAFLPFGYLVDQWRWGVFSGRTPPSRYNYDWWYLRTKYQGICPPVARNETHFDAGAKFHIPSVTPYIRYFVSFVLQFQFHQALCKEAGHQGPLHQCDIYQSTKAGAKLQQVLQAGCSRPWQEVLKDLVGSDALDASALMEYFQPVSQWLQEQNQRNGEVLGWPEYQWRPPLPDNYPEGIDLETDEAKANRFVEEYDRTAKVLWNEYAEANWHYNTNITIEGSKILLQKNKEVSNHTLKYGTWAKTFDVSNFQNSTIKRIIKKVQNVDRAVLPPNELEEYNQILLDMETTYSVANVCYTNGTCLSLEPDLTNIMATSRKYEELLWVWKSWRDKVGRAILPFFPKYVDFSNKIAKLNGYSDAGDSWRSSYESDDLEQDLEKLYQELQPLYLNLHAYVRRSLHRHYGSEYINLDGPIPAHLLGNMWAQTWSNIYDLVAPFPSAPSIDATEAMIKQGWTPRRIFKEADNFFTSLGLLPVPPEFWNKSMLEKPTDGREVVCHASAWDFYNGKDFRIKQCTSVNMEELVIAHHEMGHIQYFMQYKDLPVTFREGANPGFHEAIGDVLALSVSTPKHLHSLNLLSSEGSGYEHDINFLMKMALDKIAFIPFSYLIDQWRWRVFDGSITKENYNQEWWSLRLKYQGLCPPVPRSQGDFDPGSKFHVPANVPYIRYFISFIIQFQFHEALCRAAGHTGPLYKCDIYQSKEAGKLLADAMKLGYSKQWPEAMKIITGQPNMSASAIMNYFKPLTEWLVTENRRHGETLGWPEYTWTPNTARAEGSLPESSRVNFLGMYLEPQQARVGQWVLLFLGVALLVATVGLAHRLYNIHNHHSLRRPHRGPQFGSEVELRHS
Protocol: Under the conditions of this assay (0.1M potassium phosphate, pH 8.3, 0.3M NaCl at 37°), ACE preparations generated 6.32 nmoles of product/mg protein/min.

[7] = system: bovine femoral artery, response to bradykinin; assay: response of the bovine femoral artery to bradykinin; conditions: 10^-6 M
Protocol: as §1
In the bovine femoral artery contracted with a concentration of norepinephrine inducing a half-maximal response, bradykinin induced a biphasic response.

[8] = arterial pressure in the anesthetized rabbit; format: in vivo; conditions: 1 mM solution infused in an ear vein, 0.02 to 2.2 ml/min
Protocol: A 1 mM solution of S-nitrosocaptopril was infused in an ear vein of the rabbit at rates from 0.02 to 2.2 ml/min and the phasic and mean arterial pressure recorded in the femoral artery.

## C[C@H](CSN=O)C(=O)N1CCC[C@H]1C(=O)O [S-nitrosocaptopril]
[1]
  inhibition of contractions to angiotensin I, S-nitrosocaptopril versus captopril (in words): equally inhibited contractions to angiotensin I
  shift in the response to angiotensin I (rounded, discussion): 50 fold
[1]; 10^-6 M, n=6, p<0.001, FIG. 9
  log shift at the ED50 in the response to angiotensin I: 1.74±0.25 log
  shift at the ED50 in the response to angiotensin I: 56 fold
[2]
  cAMP levels, platelets (in words): did not change from basal levels
  cGMP level, platelets: 5.44 pmoles/10^8 platelets
[2]; Platelet, 1 min, read-out: increase of cGMP levels, platelets
  fold induction at 10 µM: 11.3
[3]
  estimated half-life of the S-nitroso bond (thiol-bound, mercurous-displaceable nitrite): approximately 2.8 hours
[4]
  shift rightward in the dose response curve to angiotensin II: 5 fold
[4]; 10^-6 M, FIG. 10
  responses to angiotensin II in the presence of S-nitrosocaptopril (in words): significantly less than control
[5]
  cAMP levels, vessel rings (in words): did not change from basal levels
  cGMP level, vascular rings: 0.0375 pmol/mg tissue
[5]; Bos taurus, 1 min, read-out: increase of cGMP levels, vascular rings
  fold induction at 10 µM: 36.5
[6]
  ACE inhibition (in words, FIG. 6): almost complete inhibition of ACE
[7]
  effect on the response to bradykinin (in words): Neither response to bradykinin was affected
[8]
  effect on blood pressure (in words): clear decrease in blood pressure
